Assay results from patent US20160137746A1, “METHODS FOR TREATING HIGH CARDIOVASCULAR RISK PATIENTS WITH HYPERCHOLESTEROLEMIA” (Sanofi Biotechnology, priority 2014, published 2016).
Several values for one entry are separate records, joined by “and”; a condition that tells them apart may be missing. Equal values may be shown once.

System: high cardiovascular risk patients with hypercholesterolemia
Experiment: ODYSSEY COMBO II: lipid efficacy of alirocumab vs ezetimibe, add-on to maximally tolerated statin
Assay type: in vivo, human
Settings: for Calculated LDL-C percent change from baseline, LS mean (SE): ITT population, MMRM, alirocumab 75 Q2W/Up150 Q2W, ezetimibe 10
Description: Each of the COMBO studies was randomized, double-blinded, and placebo-controlled.
The primary efficacy endpoint for each study was the difference between treatment arms in the percent change in LDL-C from baseline to Week 24.
Apo, apolipoprotein; HDL-C, high-density lipoprotein cholesterol; ITT, intent-to-treat; LDL-C, low-density lipoprotein cholesterol; Lp(a), lipoprotein (a); TG, triglycerides.
COMBO II was a Phase 3, randomized, double-blind, active-controlled, parallel-group, multinational 104-week study. The study enrolled high-risk patients with uncontrolled hypercholesterolemia on stable, maximally tolerated daily statin therapy. Unlike COMBO I, with a placebo arm, COMBO II incorporated an active-treatment arm (ezetimibe) with double-dummy design (FIG. 1B) and patients were not allowed to receive any other lipid lowering therapies besides statin and their randomized treatment.
After randomization, patients entered a double-blind, double-dummy treatment period of 104 weeks.
Primary analyses of efficacy endpoints were conducted using an ITT approach (based on the ITT population defined above), including all lipid data, regardless of whether the patient was continuing therapy or not. This corresponds to ITT estimands, defined for primary and key secondary endpoints. In addition, analyses were also conducted using an on-treatment approach (based on the mITT population defined above), including lipid data collected during the efficacy treatment period. This corresponds to on-treatment estimands of key secondary endpoints.
With regards to the primary efficacy analysis (ITT approach), the percent change in calculated LDL-C from baseline to Week 24 was analyzed using a mixed-effect model with repeated measures (MMRM) approach.

[1] = ITT, Week 24, listed as alirocumab

Substance: Alirocumab: human anti-PCSK9 antibody; HCVR SEQ ID NO:1, LCVR SEQ ID NO:6; CDRs SEQ ID NOs 2/3/4/7/8/10
- Achieved LDL-C, median (24 weeks, FIG. 7): 40 mg/dL
- Patients with automatic up-titration at Week 12 from 75 mg Q2W to 150 mg Q2W (Week 8 LDL-C ≧70 mg/dL) (82 of 446 patients with at least one injection after Week 12): 18.4% and 18%
- Calculated LDL-C percent change, LS mean difference (SE) vs ezetimibe (ITT, Week 24): −29.8 (2.3) %
- Calculated LDL-C, LS mean (SE) percent change from baseline (ITT, Week 24): −50.6 (1.4) %
- Fasting TGs, LS mean percent change from baseline (ITT, Week 24): −13.0%
- Calculated LDL-C percent change, LS mean difference (SE) vs ezetimibe [1]: −29.8%
- Calculated LDL-C, LS mean (SE) percent change from baseline [1]: −50.6%
- Fasting TGs percent change, LS mean difference vs ezetimibe (ITT, Week 24, p=0.9117): −0.3%
- Calculated LDL-C, LS mean percent change from baseline (ITT, Week 52, listed as alirocumab): −49.5% and −50%
- Apolipoprotein A-1, LS mean difference vs. ezetimibe (ITT, time point not given): vs. ezetimibe of 6.3%
- Apolipoprotein A-1, LS mean vs. baseline (ITT, time point not given): vs. baseline of +5.0
- Calculated LDL-C percent change, LS mean difference vs ezetimibe (On-treatment, Week 24): −30.6%
- Calculated LDL-C percent change from baseline, LS mean (SE) (Week 4): −54.7 (1.1) %
- Calculated LDL-C percent change from baseline, LS mean (SE) (Week 8): −54.3 (1.2) %
- Apo-B - Percent change from baseline to Week 12, LS mean difference vs. ezetimibe (Week 12, ITT): vs. ezetimibe of −22.5%
- Apo-B - Percent change from baseline to Week 12, LS mean vs. baseline (Week 12, ITT): vs. baseline of −39.7
- Calculated LDL-C - Percent change from baseline to Week 12, LS mean difference vs. ezetimibe (Week 12, ITT): vs. ezetimibe of −29.4%
- Non-HDL-C - Percent change from baseline to Week 12, LS mean difference vs. ezetimibe (Week 12, ITT): vs. ezetimibe of −22%
- Non-HDL-C - Percent change from baseline to Week 12, LS mean vs. baseline (Week 12, ITT): vs. baseline of −42.6
- Total-C - Percent change from baseline to Week 12, LS mean difference vs. ezetimibe (Week 12, ITT): vs. ezetimibe of −14.3%
- Total-C - Percent change from baseline to Week 12, LS mean vs. baseline (Week 12, ITT): vs. baseline of −29.4
- Calculated LDL-C - Percent change from baseline to Week 12, LS mean difference vs. ezetimibe (Week 12, On-treatment analysis): vs. ezetimibe of −29.7%
- Calculated LDL-C percent change from baseline, LS mean (SE) (Week 16): −56.4 (1.3) %
- Apo B reduction compared with ezetimibe (Week 24): 22.4%
- Fasting TGs reduced from baseline (Week 24): 13.5%
- HDL-C increase compared with ezetimibe (Week 24): 8.1%
- Lp(a) reduction compared with ezetimibe (Week 24): 21.7%
- Mean achieved LDL-C (Week 24): 51.6 (1.4) mg/dL
- Non-HDL-C reduction compared with ezetimibe (Week 24): 22.9%
- Apo-B - Percent change from baseline to Week 24, LS mean vs. baseline (Week 24, ITT): vs. baseline of −40.7
- HDL-C - Percent change from baseline to Week 24, LS mean difference vs. ezetimibe (Week 24, ITT): vs. ezetimibe of 8.1%
- HDL-C - Percent change from baseline to Week 24, LS mean vs. baseline (Week 24, ITT): vs. baseline of- +8.6
- Lp(a) - Percent change from baseline to Week 24, combined estimate for adjusted mean difference vs. ezetimibe (Week 24, ITT): ezetimibe of −21.7%
- Lp(a) - Percent change from baseline to Week 24, mean vs. baseline (Week 24, ITT): vs. baseline of −27.8
- Non-HDL-C - Percent change from baseline to Week 24, LS mean difference vs. ezetimibe (Week 24, ITT): vs. ezetimibe of−22.9%
- Non-HDL-C - Percent change from baseline to Week 24, LS mean vs. baseline (Week 24, ITT): vs. baseline of −42.1
- Total-C - Percent change from baseline to Week 24, LS mean difference vs. ezetimibe (Week 24, ITT): vs. ezetimibe of −14.7%
- Calculated LDL-C percent change from baseline, LS mean (SE) (Week 24): −50.6 (1.4) %
- Fasting TGs - Percent change from baseline to Week 24, combined estimate for adjusted mean difference vs. ezetimibe (Week 24, ITT, not statistically significant (p 0.9117)): ezetimibe of −0.3%
- HDL-C percent change from baseline to week 24 (Week 24, on-treatment analysis): 9.0 (0.8)
- HDL-C percent change from baseline to week 24, LS mean difference (SE) alirocumab vs ezetimibe (Week 24, on-treatment analysis): 8.2 (1.4) %
- Lipoprotein(a) percent change from baseline to week 24 (Week 24, on-treatment analysis): −28.1 (1.4)
- Lipoprotein(a) percent change from baseline to week 24, LS mean difference (SE) alirocumab vs ezetimibe (Week 24, on-treatment analysis): −22.5 (2.4) %
- Total cholesterol percent change from baseline to week 24 (Week 24, on-treatment analysis): −30.4 (0.9)
- Total cholesterol percent change from baseline to week 24, LS mean difference (SE) alirocumab vs ezetimibe (Week 24, on-treatment analysis): −15.1 (1.5) %
- Triglycerides (fasted) percent change from baseline to week 24 (Week 24, on-treatment analysis): −13.5 (1.4)
- Triglycerides (fasted) percent change from baseline to week 24, LS mean difference (SE) alirocumab vs ezetimibe (Week 24, on-treatment analysis): −0.2 (2.5) %
- Calculated LDL-C percent change from baseline, LS mean (SE) (Week 36): −51.2 (1.4) %
- Calculated LDL-C - Percent change from baseline to Week 52, LS mean difference vs. ezetimibe (Week 52, ITT): vs. ezetimibe of −31.2%
- Absolute reduction in LDL-C (by week 24, dose-increased group): 63.5 mg/dL
- Absolute reduction in LDL-C (by week 24, remainder of the alirocumab group): 56.9 mg/dL
- Patients who did not require uptitration to alirocumab 150 mg Q2W (in vivo): approximately 80%
- Additional LDL-C reduction after dose increase at 12 weeks (patients with dose increased to 150 mg SC Q2W): 12.4%
